In brackets after ≈: the same amount, converted by molar mass.
Key:
[1] = test system: T lymphocyte activation antigens; test: whole blood assay: expression of T lymphocyte activation antigens; type: cell-based, cynomolgous monkeys; details: mitogen stimulated
Method: (§1) Lymphocyte proliferation was assessed by tritium-labeled thymidine incorporation and by flow-cytometric analysis of expression of proliferating cell nuclear antigen (PCNA) on cells in SG2M phase. Flow cytometry was also used to assess production of intracellular cytokines by T cells and expression of T lymphocyte activation antigens.

chromosome aberration = test: in vitro chromosome aberration assay; type: cell-based
Text: (§2) No carcinogenicity studies have been completed to date.

[2] = pharmacokinetics in the rabbit model (i.v.); type: in vivo; details: for Area under the curve, mean ± SD / Cmax, mean ± SD: 10 mg/kg/day i.v.
Method: (§3) On Days 1 and 7, blood samples were collected prior to drug administration and at 0.5, 1, 2, 4, 8, 12, 18, and 24 hours post-dose to generate a pharmacokinetic profile. Other evaluated parameters included clinical observations, body weight, food consumption, hematology, clinical chemistry, gross pathology, and histopathological examination of selected tissues/organs.
Blood samples were analyzed via high performance liquid chromatography coupled with mass spectrometry (LCMS).

[3] = test system: production of intracellular cytokines by T cells; test: whole blood assay: intracellular cytokine production by T cells; type: cell-based, cynomolgous monkeys; details: mitogen stimulated
Method: as §1

[4] = test system: antigen-induced arthritis; test: antigen-induced arthritis model; type: in vivo, rabbit
Method: New Zealand White rabbits, maintained under specific pathogen free conditions, were immunized with 10 mg of ovalbumin in saline emulsified with Freund's complete adjuvant that was given intramuscularly and subcutaneously into several sites in the nape of the neck. Fourteen days later, all animals started receiving 2 daily intra-articular injections of 5 mg ovalbumin and 65 ng of human recombinant transforming growth factor 2 in saline.
Animals assigned to the treatment protocol (8/group) were dosed starting on the day of disease onset (˜Day 28) until sacrifice on Day 42.
Evaluated parameters included mortality, body weight, serum creatinine, histology, and outcome assessments such as knee joint swelling, synovial fluid counts, gross postmortem analysis, and histology.

Mouse Islet Allografts = test: islet cell allotransplantation in diabetic mice
Text: Blood glucose was monitored daily until the time of graft failure, as defined by a glucose level greater than 17 mmol/L on two consecutive days.

[5] = test system: collagen-induced arthritis; test: collagen-induced arthritis model; type: in vivo, mouse
Method: Male DBA/1 Lac J mice, kept under virus antibody free conditions, were immunized subcutaneously at 8 to 10 weeks of age with 100 microgram of chick type II collagen, emulsified in Freund's complete adjuvant. […] Animals assigned to the treatment protocol (12/group) were dosed starting on the day of disease onset (˜Day 28) until sacrifice on Day 38.
Evaluated parameters included mortality, serum creatinine, histology, and outcome assessments, such as clinical scoring (visual), hind paw swelling, histological scoring, erosion scoring, and immunohistochemistry.
Erosion scoring was done in a blinded manner by examining sagittal sections of the proximal interphalangeal (PIP) joint of the middle digit for the presence or absence of erosions (defined as demarcated defects in cartilage or bone filled with inflammatory tissue). This approach allowed for comparisons of the same joint.

[6] = test system: bacterial reverse mutation; test: in vitro bacterial reverse mutation assay; type: cell-based
Text: as §2

micronucleus = test: in vivo rat micronucleus assay
Text: as §2

Transplanted Rat Hearts = test: rat heart transplant model (heterotopic, Wistar Furth to Lewis); type: in vivo
Text: If graft dysfunction was noted during the 30-day post-transplantation period, the animal was sacrificed. If the animal survived longer than 30 days post-transplantation, the test and control articles were discontinued and the animal was allowed to continue until graft dysfunction or up to 100 days post-transplantation.

[7] = reproductive toxicity studies; type: in vivo, pregnant rats and rabbits
Text: as §2

lymphocyte proliferation = test: whole blood assay: lymphocyte proliferation; type: cell-based, cynomolgous monkeys; details: mitogen stimulated
Method: as §1

[8] = repeated-dose oral toxicity studies; type: in vivo, rats, dogs, and primates
[9] = test system: calcineurin phosphatase activity; test: calcineurin (CN) inhibition assay; type: biochemical; details: FIG. 11; ISATX247 isomer mixture
Text: The use of cyclosporine derivatives, a class of cyclic polypeptides produced by the fungus Tolypocladium inflatum Gams, is increasing in immunosuppressive therapy due to their preferential effects on T-cell mediated reactions. […] This action is primarily mediated through cyclosporine A-induced inhibition of calcineurin, a phosphatase enzyme found in the cytoplasm of cells (Schreiber and Crabtree, 1992).

[10] = 30-day toxicokinetic/toxicity study in the rabbit model
Method: as §3

Structure (SMILES): C=C/C=C/C[C@@H](C)[C@@H](O)[C@H]1C(=O)N[C@@H](CC)C(=O)N(C)CC(=O)N(C)[C@@H](CC(C)C)C(=O)N[C@@H](C(C)C)C(=O)N(C)[C@@H](CC(C)C)C(=O)N[C@@H](C)C(=O)N[C@H](C)C(=O)N(C)[C@@H](CC(C)C)C(=O)N(C)[C@@H](CC(C)C)C(=O)N(C)[C@@H](C(C)C)C(=O)N1C [ISATX247]
- EC50, CD 11a expression [1]: 0.2044 µg/mL (≈ 0.168 µM)
- EC50, CD 25 expression [1]: 0.121 µg/mL (≈ 0.0996 µM)
- EC50, CD 71 expression [1]: 0.14984 µg/mL (≈ 0.123 µM)
- EC50, CD 95 expression [1]: 0.12998 µg/mL (≈ 0.107 µM)
- EC50, CD 154 expression [1]: 0.16087 µg/mL (≈ 0.132 µM)
- mutagenic activity (chromosome aberration): does not exhibit mutagenic activity
- pharmacokinetic parameters in female rabbits compared with male rabbits ([2]; 10 mg/kg/day, exception: maximum concentration on Day 7): not significantly different
- pharmacokinetic parameters compared with cyclosporine A ([2]; male rabbits, 10 mg/kg/day): no statistically significantly differences
- Area under the curve, mean ± SD ([2]; male rabbits, Day 1): 5659 ± 1309 ng·h/mL
- Cmax, mean ± SD ([2]; male rabbits, Day 1): 1915 ± 149 ng/mL
- Area under the curve, mean ± SD ([2]; male rabbits, Day 7): 5697 ± 1373 ng·h/mL
- Cmax, mean ± SD ([2]; male rabbits, Day 7): 1959 ± 470 ng/mL
- EC50, IFN-production [3]: 0.10267 µg/mL (≈ 0.0845 µM)
- EC50, IL-2 production [3]: 0.10335 µg/mL (≈ 0.0851 µM)
- EC50, TNF-production [3]: 0.09058 µg/mL (≈ 0.0746 µM)
- synovial fluid counts ([4]; prevention protocol): significant reductions
- synovial histopathological scores compared to vehicle control ([4]; prevention protocol, after 28 days of therapy, s.c.): significant decrease
- macroscopic arthritis score ([4]; rabbit, in vivo): significant reduction
- potency compared with cyclosporine A in treatment and prevention of arthritis ([4]; rabbit, in vivo): equivalent or potentially more potent than cyclosporine A
- synovial histopathological scores of animals with established arthritis compared to vehicle controls ([4]; treatment protocol, 14 days of treatment): Significant amelioration
- Mean Survival (Mouse Islet Allografts; 1.75 mg/kg/day i.p.): 18.7
- Mean Survival (Mouse Islet Allografts; 10 mg/kg/day i.p.): 19.2
- Mean Survival (Mouse Islet Allografts; 25 mg/kg/day i.p.): 46.4
- toxicity compared with cyclosporine A as the dose level increased (Mouse Islet Allografts; especially apparent at 25 mg/kg/day): less toxic than cyclosporine A
- negative erosion scores compared to vehicle group ([5]; 250 μg/mouse i.p.): higher negative erosion scores
- development of joint erosions (PIP joints) ([5]; 500 μg/mouse): significantly prevent
- negative erosion scores compared to vehicle group ([5]; 500 μg/mouse i.p.): significantly higher
- mutagenic activity [6]: does not exhibit mutagenic activity
- mutagenic activity (micronucleus): does not exhibit mutagenic activity
- increase of survival time over Cyclosporine A (Transplanted Rat Hearts; 1.75 mg/kg/day): approximately 3 fold
- graft function after discontinuation of dosing (Transplanted Rat Hearts; 100 days post-transplant (70 days post discontinuation of dosing)): still had functioning grafts at 100 days post-transplant
- embryotoxicity ([7]; at doses that resulted in maternal toxicity): corresponding embryotoxicity was observed
- treatment-related malformations or alterations ([7]; pregnant rats and rabbits): no treatment-related malformations or alterations
- EC50, 3H-thymidine uptake (lymphocyte proliferation): 0.16054 µg/mL (≈ 0.132 µM)
- EC50, PCNA expression (lymphocyte proliferation; flow cytometry): 0.19772 µg/mL (≈ 0.163 µM)
- only toxicological effect noted in all species [8]: diarrhea/loose feces
- tolerability ([8]; rats, dogs, primates): well-tolerated
- potency of inhibition of calcineurin phosphatase activity compared to cyclosporine A (as determined by IC50) [9]: ≤ 3 fold
- examination of organs ([10]; 5 mg/kg): no significant abnormalities
- examination of organs ([10]; 10 mg/kg): no significant abnormalities
- increase in serum creatinine levels ([10]; 15 mg/kg/day): did not result in any significant increase
- examination of organs ([10]; 3 female rabbits that completed the study, 15 mg/kg): No changes
- Percent Change in Serum Creatine Levels Over Baseline ([10]; male rabbits, 10 mg/kg, Day 15): +1%
- Percent Change in Serum Creatine Levels Over Baseline ([10]; male rabbits, 10 mg/kg, Day 30): +10%
- examination of organs: spermatogenesis ([10]; male rabbits, 15 mg/kg): a decrease in spermatogenesis
- Percent Change in Serum Creatine Levels Over Baseline ([10]; male rabbits, 15 mg/kg, Day 15): −19%
- Percent Change in Serum Creatine Levels Over Baseline ([10]; male rabbits, 15 mg/kg, Day 30): −11%
- hematological parameters ([10]; rabbit, in vivo): No significant changes
